Measurements taken from the SangsterLogP compilation.

Compared with `CCC(CO)Nc1ncc(-c2ccncc2)cc1C#N` (stereo not given), `CCNc1ncc(-c2ccncc2)cc1C#N` is higher in logP: 1.04 for the first, 2.33 for the second.

Compared with `N#Cc1cc(-c2ccncc2)cnc1Cl`, `CN(C)c1ncc(-c2ccncc2)cc1C#N` is higher in logP: 1.74 for the first, 2.13 for the second.

Going from `COCCCNc1ncc(-c2ccncc2)cc1C#N` to `N#Cc1cc(-c2ccncc2)cnc1NCCCO`, the logP falls from 2.03 to 1.42.

Compared with `CC(O)CNc1ncc(-c2ccncc2)cc1C#N` (stereo not given), `N#Cc1cc(-c2ccncc2)cnc1NCCO` is higher in logP: 0.79 for the first, 1.17 for the second.

Going from `N#Cc1cc(-c2ccncc2)cnc1NCc1ccccc1` to `C=CCNc1ncc(-c2ccncc2)cc1C#N`, the logP falls from 3.45 to 2.07.

Compared with `N#Cc1cc(-c2ccncc2)cnc1NCCCCO`, `N#Cc1cc(-c2ccncc2)cnc1NCCOCCO` is lower in logP: 1.93 for the first, 1.62 for the second.

Going from `N#Cc1cc(-c2ccncc2)cnc1N1CCCC1` to `COC(CNc1ncc(-c2ccncc2)cc1C#N)OC`, the logP falls from 2.95 to 2.28.

Work on `N#Cc1cc(-c2ccncc2)cnc1N(CCO)CCO` yielded a logP of 1.14.
